Experimental data from the CheMixHub viscosity set.
± gives the uncertainty stated by the source.

Assay: xn = mol fraction of the nth substance listed
Conditions: 101 kPa

SMILES: CCC(=O)CC + CCCCN(CCCC)CCCC
- viscosity (298.15 K, x2 = 0.05): 0.468 ± 0.016 mPa·s
- viscosity (298.15 K, x2 = 0.1004): 0.498 ± 0.017 mPa·s
- viscosity (298.15 K, x2 = 0.1502): 0.533 ± 0.017 mPa·s
- viscosity (298.15 K, x2 = 0.2006): 0.566 ± 0.017 mPa·s
- viscosity (298.15 K, x2 = 0.25): 0.6 ± 0.017 mPa·s
- viscosity (298.15 K, x2 = 0.2996): 0.636 ± 0.017 mPa·s
- viscosity (298.15 K, x2 = 0.3995): 0.71 ± 0.017 mPa·s
- viscosity (298.15 K, x2 = 0.4998): 0.79 ± 0.017 mPa·s
- viscosity (298.15 K, x2 = 0.6004): 0.874 ± 0.017 mPa·s
- viscosity (298.15 K, x2 = 0.7005): 0.965 ± 0.018 mPa·s
- viscosity (298.15 K, x2 = 0.7998): 1.065 ± 0.018 mPa·s
- viscosity (298.15 K, x2 = 0.8462): 1.109 ± 0.018 mPa·s
- viscosity (298.15 K, x2 = 0.8953): 1.16 ± 0.018 mPa·s
- viscosity (298.15 K, x2 = 0.9489): 1.212 ± 0.018 mPa·s
- viscosity (303.15 K, x2 = 0.05): 0.442 ± 0.016 mPa·s
- viscosity (303.15 K, x2 = 0.1004): 0.47 ± 0.016 mPa·s
- viscosity (303.15 K, x2 = 0.1502): 0.502 ± 0.017 mPa·s
- viscosity (303.15 K, x2 = 0.2006): 0.531 ± 0.017 mPa·s
- viscosity (303.15 K, x2 = 0.25): 0.563 ± 0.017 mPa·s
- viscosity (303.15 K, x2 = 0.2996): 0.595 ± 0.017 mPa·s
- viscosity (303.15 K, x2 = 0.3995): 0.662 ± 0.017 mPa·s
- viscosity (303.15 K, x2 = 0.4998): 0.734 ± 0.017 mPa·s
- viscosity (303.15 K, x2 = 0.6004): 0.809 ± 0.017 mPa·s
- viscosity (303.15 K, x2 = 0.7005): 0.889 ± 0.017 mPa·s
- viscosity (303.15 K, x2 = 0.7998): 0.978 ± 0.018 mPa·s
- viscosity (303.15 K, x2 = 0.8462): 1.016 ± 0.018 mPa·s
- viscosity (303.15 K, x2 = 0.8953): 1.06 ± 0.018 mPa·s
- viscosity (303.15 K, x2 = 0.9489): 1.106 ± 0.018 mPa·s
- viscosity (308.15 K, x2 = 0.05): 0.419 ± 0.016 mPa·s
- viscosity (308.15 K, x2 = 0.1004): 0.444 ± 0.016 mPa·s
- viscosity (308.15 K, x2 = 0.1502): 0.473 ± 0.016 mPa·s
- viscosity (308.15 K, x2 = 0.2006): 0.502 ± 0.017 mPa·s
- viscosity (308.15 K, x2 = 0.25): 0.529 ± 0.017 mPa·s
- viscosity (308.15 K, x2 = 0.2996): 0.559 ± 0.017 mPa·s
- viscosity (308.15 K, x2 = 0.3995): 0.621 ± 0.017 mPa·s
- viscosity (308.15 K, x2 = 0.4998): 0.684 ± 0.017 mPa·s
- viscosity (308.15 K, x2 = 0.6004): 0.752 ± 0.017 mPa·s
- viscosity (308.15 K, x2 = 0.7005): 0.824 ± 0.017 mPa·s
- viscosity (308.15 K, x2 = 0.7998): 0.901 ± 0.017 mPa·s
- viscosity (308.15 K, x2 = 0.8462): 0.934 ± 0.018 mPa·s
- viscosity (308.15 K, x2 = 0.8953): 0.976 ± 0.018 mPa·s
- viscosity (308.15 K, x2 = 0.9489): 1.017 ± 0.018 mPa·s

SMILES: C1CCCC1 + CCCCO
- viscosity (298.15 K, x1 = 0.0281): 2.401 ± 0.11 mPa·s
- viscosity (298.15 K, x1 = 0.0729): 2.23 ± 0.1 mPa·s
- viscosity (298.15 K, x1 = 0.1366): 1.972 ± 0.092 mPa·s
- viscosity (298.15 K, x1 = 0.2131): 1.703 ± 0.08 mPa·s
- viscosity (298.15 K, x1 = 0.268): 1.533 ± 0.073 mPa·s
- viscosity (298.15 K, x1 = 0.2928): 1.448 ± 0.069 mPa·s
- viscosity (298.15 K, x1 = 0.3216): 1.358 ± 0.065 mPa·s
- viscosity (298.15 K, x1 = 0.3809): 1.205 ± 0.058 mPa·s
- viscosity (298.15 K, x1 = 0.4426): 1.035 ± 0.051 mPa·s
- viscosity (298.15 K, x1 = 0.5285): 0.8835 ± 0.044 mPa·s
- viscosity (298.15 K, x1 = 0.5981): 0.7551 ± 0.039 mPa·s
- viscosity (298.15 K, x1 = 0.6858): 0.6361 ± 0.034 mPa·s
- viscosity (298.15 K, x1 = 0.7617): 0.5622 ± 0.031 mPa·s
- viscosity (298.15 K, x1 = 0.7948): 0.5316 ± 0.029 mPa·s
- viscosity (298.15 K, x1 = 0.8094): 0.5193 ± 0.029 mPa·s
- viscosity (298.15 K, x1 = 0.8797): 0.4629 ± 0.026 mPa·s
- viscosity (308.15 K, x1 = 0.004): 1.958 ± 0.092 mPa·s
- viscosity (308.15 K, x1 = 0.1227): 1.614 ± 0.077 mPa·s
- viscosity (308.15 K, x1 = 0.1427): 1.583 ± 0.075 mPa·s
- viscosity (308.15 K, x1 = 0.1774): 1.556 ± 0.074 mPa·s
- viscosity (308.15 K, x1 = 0.2185): 1.381 ± 0.066 mPa·s
- viscosity (308.15 K, x1 = 0.2585): 1.358 ± 0.065 mPa·s
- viscosity (308.15 K, x1 = 0.3367): 1.164 ± 0.057 mPa·s
- viscosity (308.15 K, x1 = 0.421): 1.009 ± 0.05 mPa·s
- viscosity (308.15 K, x1 = 0.494): 0.8822 ± 0.044 mPa·s
- viscosity (308.15 K, x1 = 0.5979): 0.6995 ± 0.036 mPa·s
- viscosity (308.15 K, x1 = 0.7214): 0.5435 ± 0.03 mPa·s
- viscosity (308.15 K, x1 = 0.8382): 0.4404 ± 0.025 mPa·s
- viscosity (308.15 K, x1 = 0.9315): 0.3813 ± 0.023 mPa·s
- viscosity (308.15 K, x1 = 0.9658): 0.3641 ± 0.022 mPa·s
- viscosity (308.15 K, x1 = 0.9781): 0.3599 ± 0.022 mPa·s

SMILES: CCC(=O)CC + CCCCOC(C)=O
- viscosity (298.15 K, x2 = 0.0808): 0.478 ± 0.006 mPa·s
- viscosity (298.15 K, x2 = 0.1652): 0.5 ± 0.007 mPa·s
- viscosity (298.15 K, x2 = 0.2542): 0.523 ± 0.007 mPa·s
- viscosity (298.15 K, x2 = 0.349): 0.543 ± 0.008 mPa·s
- viscosity (298.15 K, x2 = 0.4451): 0.558 ± 0.008 mPa·s
- viscosity (298.15 K, x2 = 0.5459): 0.573 ± 0.008 mPa·s
- viscosity (298.15 K, x2 = 0.65): 0.59 ± 0.009 mPa·s
- viscosity (298.15 K, x2 = 0.7613): 0.614 ± 0.009 mPa·s
- viscosity (298.15 K, x2 = 0.8771): 0.645 ± 0.01 mPa·s
- viscosity (303.15 K, x2 = 0.0808): 0.445 ± 0.006 mPa·s
- viscosity (303.15 K, x2 = 0.1652): 0.464 ± 0.006 mPa·s
- viscosity (303.15 K, x2 = 0.2542): 0.485 ± 0.007 mPa·s
- viscosity (303.15 K, x2 = 0.349): 0.5 ± 0.007 mPa·s
- viscosity (303.15 K, x2 = 0.4451): 0.513 ± 0.007 mPa·s
- viscosity (303.15 K, x2 = 0.5459): 0.526 ± 0.008 mPa·s
- viscosity (303.15 K, x2 = 0.65): 0.541 ± 0.008 mPa·s
- viscosity (303.15 K, x2 = 0.7613): 0.562 ± 0.008 mPa·s
- viscosity (303.15 K, x2 = 0.8771): 0.589 ± 0.009 mPa·s
- viscosity (308.15 K, x2 = 0.0808): 0.419 ± 0.006 mPa·s
- viscosity (308.15 K, x2 = 0.1652): 0.437 ± 0.006 mPa·s
- viscosity (308.15 K, x2 = 0.2542): 0.455 ± 0.006 mPa·s
- viscosity (308.15 K, x2 = 0.349): 0.471 ± 0.007 mPa·s
- viscosity (308.15 K, x2 = 0.4451): 0.483 ± 0.007 mPa·s
- viscosity (308.15 K, x2 = 0.5459): 0.495 ± 0.007 mPa·s
- viscosity (308.15 K, x2 = 0.65): 0.509 ± 0.007 mPa·s
- viscosity (308.15 K, x2 = 0.7613): 0.528 ± 0.008 mPa·s
- viscosity (308.15 K, x2 = 0.8771): 0.554 ± 0.008 mPa·s
- viscosity (313.15 K, x2 = 0.0808): 0.395 ± 0.005 mPa·s
- viscosity (313.15 K, x2 = 0.1652): 0.411 ± 0.006 mPa·s
- viscosity (313.15 K, x2 = 0.2542): 0.429 ± 0.006 mPa·s
- viscosity (313.15 K, x2 = 0.349): 0.441 ± 0.006 mPa·s
- viscosity (313.15 K, x2 = 0.4451): 0.452 ± 0.006 mPa·s
- viscosity (313.15 K, x2 = 0.5459): 0.461 ± 0.007 mPa·s
- viscosity (313.15 K, x2 = 0.65): 0.474 ± 0.007 mPa·s
- viscosity (313.15 K, x2 = 0.7613): 0.491 ± 0.007 mPa·s
- viscosity (313.15 K, x2 = 0.8771): 0.514 ± 0.008 mPa·s
